Source: the NIST ThermoML archive (doi:10.1021/je700321s)

Assay: xn = mol fraction of the nth substance listed
Conditions: Liquid, Vibrating tube method

CC(C)O [propan-2-ol] + O=C=O
Conditions | mass density [kg/m3]
333.02 K, 8305 kPa, x2 = 0.6086 | 754.3
333.02 K, 8394 kPa, x2 = 0.4248 | 773.2
333.02 K, 8400 kPa, x2 = 0.6086 | 754.8
333.02 K, 8504 kPa, x2 = 0.6086 | 755.5
333.02 K, 8610 kPa, x2 = 0.6086 | 756
333.02 K, 8701 kPa, x2 = 0.6086 | 756.6
333.02 K, 8802 kPa, x2 = 0.4248 | 774.1
333.02 K, 8802 kPa, x2 = 0.6086 | 757.3
333.02 K, 8900 kPa, x2 = 0.6086 | 757.9
333.02 K, 8916 kPa, x2 = 0.4248 | 774.5
333.02 K, 9000 kPa, x2 = 0.4248 | 774.7
333.02 K, 9005 kPa, x2 = 0.6086 | 758.5
333.02 K, 9100 kPa, x2 = 0.4248 | 775
333.02 K, 9103 kPa, x2 = 0.6086 | 759
333.02 K, 9205 kPa, x2 = 0.4248 | 775.3
333.02 K, 9304 kPa, x2 = 0.4248 | 775.6
333.02 K, 9410 kPa, x2 = 0.4248 | 775.8
333.02 K, 9506 kPa, x2 = 0.4248 | 776.1
333.02 K, 9607 kPa, x2 = 0.4248 | 776.4
333.02 K, 9809 kPa, x2 = 0.4248 | 776.8
333.05 K, 4210 kPa, x2 = 0.2003 | 763.4
333.05 K, 4492 kPa, x2 = 0.2003 | 763.8
333.05 K, 4799 kPa, x2 = 0.2003 | 764.3
333.05 K, 5001 kPa, x2 = 0.2003 | 764.6
333.05 K, 5470 kPa, x2 = 0.2003 | 765.3
333.05 K, 5996 kPa, x2 = 0.2003 | 766.1
333.05 K, 6511 kPa, x2 = 0.2003 | 766.9
333.05 K, 7008 kPa, x2 = 0.2003 | 767.7
333.05 K, 7519 kPa, x2 = 0.2003 | 768.4
333.05 K, 8008 kPa, x2 = 0.2003 | 769.2
333.05 K, 8503 kPa, x2 = 0.2003 | 769.9
333.05 K, 9019 kPa, x2 = 0.2003 | 770.6
333.05 K, 9506 kPa, x2 = 0.2003 | 771.3
333.05 K, 9994 kPa, x2 = 0.2003 | 772.1
347.93 K, 7801 kPa, x2 = 0.4248 | 744.8
347.93 K, 7908 kPa, x2 = 0.4248 | 745.1
347.93 K, 7999 kPa, x2 = 0.4248 | 745.5
347.93 K, 8130 kPa, x2 = 0.4248 | 745.9
347.93 K, 8239 kPa, x2 = 0.4248 | 746.2
347.93 K, 8408 kPa, x2 = 0.4248 | 746.8
347.93 K, 8501 kPa, x2 = 0.4248 | 747.2
347.93 K, 8600 kPa, x2 = 0.4248 | 747.4
347.93 K, 8712 kPa, x2 = 0.4248 | 747.8
347.93 K, 8801 kPa, x2 = 0.4248 | 748.2
347.93 K, 8890 kPa, x2 = 0.4248 | 748.4
347.93 K, 9033 kPa, x2 = 0.4248 | 748.8
347.93 K, 9105 kPa, x2 = 0.4248 | 749.1
347.93 K, 9244 kPa, x2 = 0.4248 | 749.4
347.93 K, 9410 kPa, x2 = 0.4248 | 750
347.93 K, 9501 kPa, x2 = 0.4248 | 750.2
347.93 K, 9608 kPa, x2 = 0.4248 | 750.7
347.94 K, 9809 kPa, x2 = 0.6086 | 716
347.94 K, 9815 kPa, x2 = 0.6086 | 717
347.94 K, 9822 kPa, x2 = 0.6086 | 718.1
347.94 K, 9831 kPa, x2 = 0.6086 | 719.1
347.94 K, 9840 kPa, x2 = 0.6086 | 719.7
347.94 K, 9850 kPa, x2 = 0.6086 | 720
347.94 K, 9861 kPa, x2 = 0.6086 | 720
347.94 K, 9873 kPa, x2 = 0.6086 | 720.2
347.94 K, 9885 kPa, x2 = 0.6086 | 720.2
347.94 K, 9897 kPa, x2 = 0.6086 | 720.3
347.94 K, 9910 kPa, x2 = 0.6086 | 720.4
347.94 K, 9949 kPa, x2 = 0.6086 | 720.8
347.94 K, 10004 kPa, x2 = 0.6086 | 721.1
347.94 K, 10052 kPa, x2 = 0.6086 | 721.5
347.94 K, 10104 kPa, x2 = 0.6086 | 721.9
347.94 K, 10152 kPa, x2 = 0.6086 | 722.2
347.95 K, 3317 kPa, x2 = 0.139 | 742.5
347.95 K, 3516 kPa, x2 = 0.139 | 742.7
347.95 K, 4002 kPa, x2 = 0.139 | 743.5
347.95 K, 4464 kPa, x2 = 0.139 | 744.3
347.95 K, 5008 kPa, x2 = 0.139 | 745.1
347.95 K, 5502 kPa, x2 = 0.139 | 745.9
347.95 K, 6011 kPa, x2 = 0.139 | 746.7
347.95 K, 6501 kPa, x2 = 0.139 | 747.5
347.95 K, 7037 kPa, x2 = 0.139 | 748.3
347.95 K, 7523 kPa, x2 = 0.139 | 749.1
347.95 K, 8023 kPa, x2 = 0.139 | 749.8
347.95 K, 8497 kPa, x2 = 0.139 | 750.5
347.95 K, 8993 kPa, x2 = 0.139 | 751.3
347.95 K, 9568 kPa, x2 = 0.139 | 752.1
347.95 K, 10032 kPa, x2 = 0.139 | 752.8
347.95 K, 11400 kPa, x2 = 0.7943 | 647.2
347.95 K, 11604 kPa, x2 = 0.7943 | 653.3
347.95 K, 11812 kPa, x2 = 0.7943 | 658.7
347.95 K, 12007 kPa, x2 = 0.7943 | 663
347.95 K, 12201 kPa, x2 = 0.7943 | 666.8
347.95 K, 12502 kPa, x2 = 0.7943 | 672.6
347.95 K, 12802 kPa, x2 = 0.7943 | 677.6
347.95 K, 13202 kPa, x2 = 0.7943 | 684
347.95 K, 13504 kPa, x2 = 0.7943 | 688.5
347.95 K, 13802 kPa, x2 = 0.7943 | 692.8
347.95 K, 14109 kPa, x2 = 0.7943 | 696.9
347.95 K, 14406 kPa, x2 = 0.7943 | 700.5
347.95 K, 14703 kPa, x2 = 0.7943 | 703.9
347.95 K, 15000 kPa, x2 = 0.7943 | 707.4
347.95 K, 15207 kPa, x2 = 0.7943 | 709.6
347.95 K, 15407 kPa, x2 = 0.7943 | 711.9
347.95 K, 15610 kPa, x2 = 0.7943 | 714
347.95 K, 15813 kPa, x2 = 0.7943 | 716.1
347.95 K, 16004 kPa, x2 = 0.7943 | 717.9
347.95 K, 16303 kPa, x2 = 0.7943 | 720.7
347.95 K, 16501 kPa, x2 = 0.7943 | 722.4
347.95 K, 16808 kPa, x2 = 0.7943 | 725
347.96 K, 10989 kPa, x2 = 0.9492 | 348.5
347.96 K, 11505 kPa, x2 = 0.9492 | 382.4
347.96 K, 12004 kPa, x2 = 0.9492 | 415.7
347.96 K, 12507 kPa, x2 = 0.9492 | 448.4
347.96 K, 13000 kPa, x2 = 0.9492 | 477.1
347.96 K, 13503 kPa, x2 = 0.9492 | 503
347.96 K, 14006 kPa, x2 = 0.9492 | 527.8
347.96 K, 14511 kPa, x2 = 0.9492 | 550.1
347.96 K, 15011 kPa, x2 = 0.9492 | 569.6
347.96 K, 15495 kPa, x2 = 0.9492 | 586.6
347.96 K, 15997 kPa, x2 = 0.9492 | 602.4
347.96 K, 16514 kPa, x2 = 0.9492 | 617
347.96 K, 17014 kPa, x2 = 0.9492 | 629.5
347.96 K, 17513 kPa, x2 = 0.9492 | 640.4
347.96 K, 17988 kPa, x2 = 0.9492 | 648.6
347.97 K, 5098 kPa, x2 = 0.2003 | 745.6
347.97 K, 5302 kPa, x2 = 0.2003 | 746.1
347.97 K, 5533 kPa, x2 = 0.2003 | 746.5
347.97 K, 6025 kPa, x2 = 0.2003 | 747.4
347.97 K, 6609 kPa, x2 = 0.2003 | 748.4
347.97 K, 7005 kPa, x2 = 0.2003 | 749.2
347.97 K, 7508 kPa, x2 = 0.2003 | 750.1
347.97 K, 8010 kPa, x2 = 0.2003 | 751
347.97 K, 8501 kPa, x2 = 0.2003 | 751.7
347.97 K, 8915 kPa, x2 = 0.2003 | 752.4
347.97 K, 9581 kPa, x2 = 0.2003 | 753.5
347.97 K, 9706 kPa, x2 = 0.2003 | 753.7
347.97 K, 10014 kPa, x2 = 0.2003 | 754.2
